Data set [1] has as its system mT3 pancreatic cancer cells. The data set is described as follows: s.c. mT3 pancreatic tumor growth in immunocompetent C57BL/6J transplant mice. The class given is in vivo, mouse. To be noted: for growth rate of pre-existing tumors: started at average tumor volume 100 mm^3 (FIG. 5H). The source says:
The experimental protocols were approved by the Georgetown University Animal Care and Use Committee. A pair of CDH11^−/− mice (Horikawa et al. Dev. Biol. 215: 182-189 (1999)) was kindly provided by Dr. Michael Brenner from Harvard University. A breeding pair of p48-Cre;LSL-Kras^G12D/+;LSL-Trp53^R172H/+ (KPC) mice (Hingorani et al. Cancer Cell 7: 469-483 (2005)) was provided by Dr. Anton Wellstein from Georgetown University. C57BL/6J mice (Cat #000664; Research Resource Identifier (RRID): IMSR_JAX:000664) and Rag1-mutant mice on C57BL/6J background (Cat #002216; RRID: IMSR_JAX:002216) were purchased from The Jackson Laboratory (Bar Harbor, Me.). In transplant experiments, 12-week old C57BL/6J and Rag1-mutant (on C57BL/6J background) mice were bilaterally subcutaneously (s.c.) injected with 5×10^5 mT3 pancreatic cancer cells, derived from a Kras^+/LSL-G12D;Trp53^+/LSL-R172H;Pdx-Cre mouse on C57BL/6 background. Both genders of mice were equally represented throughout all in vivo experiments. Mice were housed in specific pathogen free environment under standard conditions. See, Bandrowski et al. “The Resource Identification Initiative: A cultural shift in publishing,” F1000Res 4: 134 (2015), regarding Research Resource Identifiers (RRIDs),
(§1) Anti-PD1 (InVivoPlus anti-mouse PD1 (CD279), clone RMP1-14, Cat #BP0146, Bio X Cell (Lebanon, N.H.)) was administered intraperitoneally (i.p.) at 250 μg/mouse, 2× week. Gemcitabine (G-4177, LC Laboratories (Woburn, Mass.)) was administered i.p. at 100 mg/kg, 2× week. Treatment with CDH11 monoclonal antibody (mAb), SYN0012 (Roche (Basel, Switzerland)) was administered i.p. at 10 mg/kg, 2× week. Treatment with a small molecule CDH11-inhibitor, SD133, was administered i.p. at 150 mg/kg, 40 mg/kg or 10 mg/kg, 4× week. Stock solution of SD133 at 375 mg/mL was made in DMSO (Sigma (St. Louis, Mo.)), and further diluted in 30% PEG400 (Sigma).

In data set [2] the test system is mT3 pancreatic cancer cells. The data set is described as follows: s.c. mT3 tumor growth in immunocompromised Rag1-mutant mice. The format is in vivo, mouse. To be noted: SD133 40 mg/kg, pre-existing tumors 100 mm^3, Rag1-mutant mice without mature T and B cells (FIG. 5I). From the text: (§2) The experimental protocols were approved by the Georgetown University Animal Care and Use Committee. A pair of CDH11^−/− mice (Horikawa et al. Dev. Biol. 215: 182-189 (1999)) was kindly provided by Dr. Michael Brenner from Harvard University. A breeding pair of p48-Cre;LSL-Kras^G12D/+;LSL-Trp53^R172H/+ (KPC) mice (Hingorani et al. Cancer Cell 7: 469-483 (2005)) was provided by Dr. Anton Wellstein from Georgetown University. C57BL/6J mice (Cat #000664; Research Resource Identifier (RRID): IMSR_JAX:000664) and Rag1-mutant mice on C57BL/6J background (Cat #002216; RRID: IMSR_JAX:002216) were purchased from The Jackson Laboratory (Bar Harbor, Me.). In transplant experiments, 12-week old C57BL/6J and Rag1-mutant (on C57BL/6J background) mice were bilaterally subcutaneously (s.c.) injected with 5×10^5 mT3 pancreatic cancer cells, derived from a Kras^+/LSL-G12D;Trp53^+/LSL-R172H;Pdx-Cre mouse on C57BL/6 background. Both genders of mice were equally represented throughout all in vivo experiments. Mice were housed in specific pathogen free environment under standard conditions. See, Bandrowski et al. “The Resource Identification Initiative: A cultural shift in publishing,” F1000Res 4: 134 (2015), regarding Research Resource Identifiers (RRIDs), […]

A short description of data set [3]: Body weight / toxicity of treated mT3 tumor-bearing mice. The format is in vivo, mouse. The protocol:
Body weight of C57BL/6J mice engrafted with syngeneic mT3 cells and treated with (A) vehicle (DMSO), (B) gemcitabine, (C) CDH11 mAb, (D) CDH11 mAb+ gemcitabine, (E) SD133 at 150 mg/kg for 2 weeks, (F) SD133 at 150 mg/kg for 2 weeks+ gemcitabine; (G) vehicle (10% DMSO in 30% PEG400), (H) SD133 at 150 mg/kg for 5 weeks, and mice with pre-existing mT3 tumors treated with (I) SD133 at 40 mg/kg, and (J) SD133 at 10 mg/kg. Mouse body weight was measured once or twice a week. Body weight of immunodeficient Rag1-mutant mice on C57BL/6J background with pre-existing syngeneic mT3 tumors treated with (K) vehicle (10% DMSO in 30% PEG400), and (L) SD133 at 40 mg/kg. Gender of mice is indicated in the graphs by commonly used gender symbols. The dose, route and treatment schedule are indicated in colored bars under the x-axes.
as §1

For a further data set, the target named is T1, CDH11 (Homo sapiens, UniProt P55287).
T1 sequence (P55287 54-796): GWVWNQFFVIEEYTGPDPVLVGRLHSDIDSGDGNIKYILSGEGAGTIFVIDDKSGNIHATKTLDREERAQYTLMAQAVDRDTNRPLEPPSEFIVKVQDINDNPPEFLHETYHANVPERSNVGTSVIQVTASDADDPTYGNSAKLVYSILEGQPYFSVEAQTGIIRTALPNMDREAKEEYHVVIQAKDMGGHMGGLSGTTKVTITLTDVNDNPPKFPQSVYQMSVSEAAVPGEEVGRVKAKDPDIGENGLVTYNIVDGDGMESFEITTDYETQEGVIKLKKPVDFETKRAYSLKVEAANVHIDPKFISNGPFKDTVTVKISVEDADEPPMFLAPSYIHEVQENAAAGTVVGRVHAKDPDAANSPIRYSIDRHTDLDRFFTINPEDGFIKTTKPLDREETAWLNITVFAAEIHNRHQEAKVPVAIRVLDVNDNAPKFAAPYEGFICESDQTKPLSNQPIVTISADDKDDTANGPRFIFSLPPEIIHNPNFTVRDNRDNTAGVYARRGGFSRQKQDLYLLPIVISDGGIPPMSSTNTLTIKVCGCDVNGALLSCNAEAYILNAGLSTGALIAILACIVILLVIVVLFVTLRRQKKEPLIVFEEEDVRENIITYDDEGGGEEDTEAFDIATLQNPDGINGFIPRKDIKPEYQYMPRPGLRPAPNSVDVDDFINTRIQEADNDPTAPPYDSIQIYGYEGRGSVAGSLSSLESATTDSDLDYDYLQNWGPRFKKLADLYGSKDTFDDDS
To be noted: in vitro; previously characterized and validated; cited from earlier work.

Another data set has as its system KPC mice (PDAC). The data set is described as follows: Survival of KPC transgenic PDAC mice under treatment. The format is in vivo, mouse.
Excerpt: as §2

The mark [4] stands for this setting: single agent, mT3-engrafted mice (FIG. 11).

Entries after “also recorded” stand apart in the source; their conditions may differ.

Take `Oc1ccc(-c2cccnc2-c2ccccc2)cc1` [SD133]: the “growth rate of pre-existing tumors” value in data set [1] (SD133 10 mg/kg) and in data set [1] (SD133 40 mg/kg) was “significantly reduced” throughout. Besides, the tumor growth result in data set [1] (SD133 150 mg/kg continued throughout the study, 5 weeks (FIG. 5G)) was “reduced tumor growth was observed for the duration of the treatment”; in data set [1] (SD133 i.p. 150 mg/kg 4x week for 2 weeks, beginning on day 2 after cancer cell injection (FIG. 5E)), “marked reduction in tumor growth”; in data set [2], “did not suppress tumor growth”. Also, in data set [1] (SD133 for 2 weeks + gemcitabine i.p. 100 mg/kg 2x week (FIG. 5F)), the “combinatorial effect with gemcitabine on tumor growth” value was “not observed”. Moreover, the “tumor size versus control after treatment discontinued” value in data set [1] (after the 2-week SD133 treatment was discontinued) was “remained significantly smaller than tumors in control animals”. Moreover, the “efficacy as a monotherapy (summary)” value in data set [1] (immunocompetent mT3 model, summary statement) is given as “remarkably effective”. Besides, the mouse body weight entry in data set [3] (in combination with gemcitabine, mT3-engrafted C57BL/6J mice (FIG. 11)) is given as “does not affect mouse body weight”; in data set [3] (setting [4]) it was “no decrease in animal weight; also recorded: does not affect mouse body weight”. Also, the toxicity result in data set [3] (mouse, in vivo) is listed as “no sign of toxicity”. In addition, the “affinity of binding to the CDH11 binding pocket” value on CDH11 is on record as “low μM”.

Consider `Nc1ccn([C@@H]2O[C@H](CO)[C@@H](O)C2(F)F)c(=O)n1` [gemcitabine, reference compound], for which, in data set [1] (monotherapy, gemcitabine i.p. 100 mg/kg 2x week or CDH11 mAb i.p. 10 mg/kg 2x week (FIG. 5A, 5B)), the tumor growth result is recorded as “did not reduce tumor growth”. The “first PDAC-related death” value in the data set on KPC mice (PDAC) (KPC/CDH11-deficient mice, gemcitabine 6 weeks starting at 100 days of age) is on record as 165 days. In addition, in the data set with KPC mice (PDAC) (gemcitabine 6 weeks starting at 100 days of age (FIG. 4B)), the “overall survival versus untreated KPC/CDH11-deficient group” value is “improved significantly”. Further, the mouse body weight entry in data set [3] (setting [4]) is reported as “does not affect mouse body weight”.
